Measurements published in patent US20220095615A1, “NEMATODE DETERRENT COMPOSITIONS” (SALK INSTITUTE FOR BIOLOGICAL STUDIES, priority 2018, published 2022).
Counter-ions that a name gives are not always drawn.

Experiments:
C. elegans [1] = assay: Chemotaxis assay for volatile components; format: in vivo, Caenorhabditis elegans; settings: Benzaldehyde 1:200, 2-nonanone undiluted, 60 min, FIG. 8D
Procedure: Chemotaxis assays were performed on 2% agar square (10 cm) plates containing 5 mM potassium phosphate (pH 6), 1 mM CaCl2, and 1 mM MgSO4. Animals were washed three times in M9 and once in chemotaxis buffer (5 mM potassium phosphate (pH 6), 1 mM CaCl2, and 1 mM MgSO4) and then placed in the middle of the plate (FIG. 8c). Two spots of the collected nematode secretions and two control M9 spots (all 1 μl) were added to opposite sides of the plate, generating gradients of any volatile components in the nematode secretions. Animals were allowed to explore these gradients for 1 h, after which they were counted and the chemotaxis index calculated (FIG. 8d). Benzaldehyde (1:200) and 2-nonanone (undiluted) were used as control attractants and repellents, respectively^25. Nine or more assays were performed on at least three different days. Two-tailed unpaired t-tests were used to compare C. elegans responses to different secretions, and the Bonferroni correction was used to adjust for multiple comparisons.

C. elegans [2] = settings: literature reference; cited from earlier work
C. elegans [3] = assay: Single animal avoidance assay (avoidance index); format: in vivo, Caenorhabditis elegans; settings: for activity of synthetic sulfolipids in the avoidance assay: synthetic compounds, FIG. 10a
Procedure: Adult C. elegans were exposed to a small volume of a test compound (0.05 μl) near the head of the animal. Upon sensing a repellent, animals initiate a reversal followed by an omega bend. Positive responses to a test compound were scored only if they occurred within 4 s. Results are shown as the avoidance index, which is the ratio of number of positive responses to the total number of trials. Each animal is tested thrice and data is presented as average of the animals tested on at least 3 days (FIGS. 1-4 and FIGS. 8-13). For Data in FIG. 18b, animals were pre-treated with various drugs at 100 μM for 30 min and then their responses to predator cue were analyzed. Each assay was performed in triplicate (5 animals per condition) and on at least 3 different days […]. For Data shown in FIG. 4, animals were pre-treated with 1 mM Sertraline (Sigma) or M9 control for 3 min before being tested for their responses in the avoidance assay. We also performed additional controls to test whether an animal's response to the three repellent trials were independent.
Two-tailed unpaired t-tests were used to compare different strains, genotypes, and conditions, and the Bonferroni correction was used to adjust for multiple comparisons. Avoidance indices of all strains tested and controls are shown in Supplementary Table S7 of Liu et al., Nature Communications 9: 1128 (2018)).
Adult nematodes were exposed to a small volume of a test compound (0.05 μl) near the head of the animal. Upon sensing a repellent, animals initiate a reversal followed by an omega bend. Positive responses to a test compound were scored only if they occurred within 4 s. Results are shown as the avoidance index, which is the ratio of number of positive responses to the total number of trials. Each animal is tested thrice and data is presented as average of the animals tested on at least 3 days.

C. elegans [4] = assay: Egg-laying assay; format: in vivo, Caenorhabditis elegans; settings: predator cue with sertraline (1 mM) for 30 min, egg-laying monitored 60 min after removal, FIG. 4f
Procedure: Synchronized Day 1 adults were treated with M9 control buffer or concentrated predator cue for 30 min. These animals were transferred to a 2-day lawn of 100 μl OP50 bacteria (OD600=0.5) and allowed to lay eggs. Eggs were counted at the time intervals shown. In each condition and genotype, at least 35 animals were analyzed. Average number of eggs and s.e.m. are presented with two-tailed unpaired t-tests with Bonferroni correction for statistical analysis. To test the effect of sulfolipids on egg-laying behavior, these compounds were dissolved in DMSO and further diluted in M9 to obtain the concentrations indicated. Sertraline effects were analyzed by exposing animals to predator cue with or without sertraline (1 mM) for 30 min.

SMILES: O=Cc1ccccc1 [Benzaldehyde]
- chemotaxis response to control attractant and repellent (C. elegans [1]): strong responses

SMILES: CCCCCCCCCCCCOS(=O)(=O)[O-].[Na+] [SDS, sodium dodecyl sulfate]
- C. elegans avoidance cue potency (C. elegans [2]): potent

SMILES: CCCCCCCC(C)=O [Sulfolipid 2-nonanone, 2-nonanone]
- chemotaxis response to control attractant and repellent (C. elegans [1]): strong responses

SMILES: CN[C@H]1CC[C@@H](c2ccc(Cl)c(Cl)c2)c2ccccc21 [sertraline]
- duration of the drug effects (decay of the sertraline effect) (C. elegans [3]; predator cue, FIG. 13C legend): about 30 minutes
- concentration dependence of suppression of avoidance behavior (C. elegans [3]; predator cue, FIG. 13b): dependent on drug concentration
- duration of suppression of avoidance after the drug was removed (C. elegans [3]; predator cue, FIG. 13c): at least 30 min
- sertraline modulation of avoidance in eat-4 mutants (C. elegans [3]; predator cue, eat-4 (vesicular glutamate transporter) mutants, FIG. 4c): significant sertraline-induced modulation of avoidance behavior
- sertraline effect on behavior of tax-4 or ocr-2 mutants (C. elegans [3]; predator cue, tax-4 or ocr-2 mutants, FIG. 4b): no detectable effect
- sertraline attenuation in unc-25 mutants (C. elegans [3]; predator cue, unc-25 (glutamic acid decarboxylase) mutants, FIG. 4c): defective in sertraline attenuation
- sertraline effect on avoidance to predator cue (C. elegans [3]; wild-type, pre-treated with sertraline (1 mM), FIG. 4a): attenuated avoidance
- sertraline effect on avoidance responses to fructose (C. elegans [3]; wild-type, pre-treated with sertraline, FIG. 4a): attenuated avoidance responses
- sertraline effect on avoidance to purified sulfolipids (C. elegans [3]; wild-type, pre-treated with sertraline, FIG. 13a): attenuated avoidance
- sertraline effect on predator cue-induced egg-laying response (C. elegans [4]): reduced the longer-lasting egg-laying response

SMILES: CC(C)CCC(CCCCCCCCCO)OS(=O)(=O)O (stereo not drawn) [sufal #1, 14-hydroxy-2-methyltetradecan-5-yl Hydrogen Sulfate]
- activity of synthetic sulfolipids in the avoidance assay (C. elegans [3]): accounted for most of the isolated activity

SMILES: CC(C)CCCC(CCCCCCCCO)OS(=O)(=O)O (stereo not drawn) [sufal #2, 14-hydroxy-2-methyltetradecan-6-yl Hydrogen Sulfate]
- activity of synthetic sulfolipids in the avoidance assay (C. elegans [3]): accounted for most of the isolated activity
